# According to patent US20110251212A1, “PIPERAZINE DERIVATIVES” (SHIONOGI & CO., LTD., priority 2007, published 2011):
# Molecular target: T1, mouse NMDA receptor (NR1 subunit and NR2B subunit co-expressed in HEK293 cells) (Mus musculus, UniProt P35438+Q01097)
# T1 construct: expressed in transfected cells; host or cells: HEK293 cells, transient, pcDNA 3.1 plasmids
# Test: Expression of NMDA receptor and measurement of Ca ion flow in amount (HEK293 cells, Fluo-3/AM, FDSS3000)
# Format: cell-based
# Details: Ca ion flow in induced with glutamic acid 20 μM/glycine 2 μM, read-out: Ca2+ 1050
# Method: Test Example 2 Expression of NMDA receptor and measurement of Ca ion flow in amount
# A complementary DNA (cDNA) of a mouse NMDA receptor subunit was transiently introduced into HEK293 cells and, after one day from introduction, change in a glutamic acid/glycine-induced intracellular Ca amount was measured using a Ca ion reactive fluorescent dye.
# HEK293 cells were cultured and passaged using a modified Dulbecco's Eagle medium (DMEM, low glucose).
# 20,000/well of HEK293 cells were seeded on a 96-well plate, a NR1 subunit and a NR2B subunit of a NMDA receptor incorporated into pcDNA 3.1 plasmid were transiently introduced into cells, and co-expression of subunits was performed. An introduction amount of a DNA was such that the NR1 subunit was 0.025 μg, and the NR2B subunit was 0.075 μg per well. For cells after introduction, cell death was inhibited using 50 μM of a NMDA receptor antagonist MK-801.
# For adjusting a test compound and washing cells, Krebs Ringer Hepes buffer (KRH, Ca: 5 mM) was used.
# One day after introduction, the NMDA receptor antagonist MK-801 was washed off using the KRH buffer, and a Ca ion indicative fluorescent dye Fluo-3/AM was made to be taken into cells. Flow in of a Ca ion was induced with glutamic acid 20 μM/glycine 2 μM. Change in a fluorescence amount due to intracellular Ca ion flow in was measured at excitation 480 nm using a fluorescence imaging system FDSS3000.
# From a measured value of the test compound, a Ca ion flow in inhibitory rate (%) was obtained by the following equation, and a dose at which flow in is 50% inhibited (IC50) was calculated.
# Ca ion flow in inhibitory rate(%)=100−[(fluorescence amount in presence of test compound−background fluorescence amount)/(total fluorescence amount[…]background fluorescence amount)]×100
# T1 sequence (Q01097 27-1482, other chains not shown): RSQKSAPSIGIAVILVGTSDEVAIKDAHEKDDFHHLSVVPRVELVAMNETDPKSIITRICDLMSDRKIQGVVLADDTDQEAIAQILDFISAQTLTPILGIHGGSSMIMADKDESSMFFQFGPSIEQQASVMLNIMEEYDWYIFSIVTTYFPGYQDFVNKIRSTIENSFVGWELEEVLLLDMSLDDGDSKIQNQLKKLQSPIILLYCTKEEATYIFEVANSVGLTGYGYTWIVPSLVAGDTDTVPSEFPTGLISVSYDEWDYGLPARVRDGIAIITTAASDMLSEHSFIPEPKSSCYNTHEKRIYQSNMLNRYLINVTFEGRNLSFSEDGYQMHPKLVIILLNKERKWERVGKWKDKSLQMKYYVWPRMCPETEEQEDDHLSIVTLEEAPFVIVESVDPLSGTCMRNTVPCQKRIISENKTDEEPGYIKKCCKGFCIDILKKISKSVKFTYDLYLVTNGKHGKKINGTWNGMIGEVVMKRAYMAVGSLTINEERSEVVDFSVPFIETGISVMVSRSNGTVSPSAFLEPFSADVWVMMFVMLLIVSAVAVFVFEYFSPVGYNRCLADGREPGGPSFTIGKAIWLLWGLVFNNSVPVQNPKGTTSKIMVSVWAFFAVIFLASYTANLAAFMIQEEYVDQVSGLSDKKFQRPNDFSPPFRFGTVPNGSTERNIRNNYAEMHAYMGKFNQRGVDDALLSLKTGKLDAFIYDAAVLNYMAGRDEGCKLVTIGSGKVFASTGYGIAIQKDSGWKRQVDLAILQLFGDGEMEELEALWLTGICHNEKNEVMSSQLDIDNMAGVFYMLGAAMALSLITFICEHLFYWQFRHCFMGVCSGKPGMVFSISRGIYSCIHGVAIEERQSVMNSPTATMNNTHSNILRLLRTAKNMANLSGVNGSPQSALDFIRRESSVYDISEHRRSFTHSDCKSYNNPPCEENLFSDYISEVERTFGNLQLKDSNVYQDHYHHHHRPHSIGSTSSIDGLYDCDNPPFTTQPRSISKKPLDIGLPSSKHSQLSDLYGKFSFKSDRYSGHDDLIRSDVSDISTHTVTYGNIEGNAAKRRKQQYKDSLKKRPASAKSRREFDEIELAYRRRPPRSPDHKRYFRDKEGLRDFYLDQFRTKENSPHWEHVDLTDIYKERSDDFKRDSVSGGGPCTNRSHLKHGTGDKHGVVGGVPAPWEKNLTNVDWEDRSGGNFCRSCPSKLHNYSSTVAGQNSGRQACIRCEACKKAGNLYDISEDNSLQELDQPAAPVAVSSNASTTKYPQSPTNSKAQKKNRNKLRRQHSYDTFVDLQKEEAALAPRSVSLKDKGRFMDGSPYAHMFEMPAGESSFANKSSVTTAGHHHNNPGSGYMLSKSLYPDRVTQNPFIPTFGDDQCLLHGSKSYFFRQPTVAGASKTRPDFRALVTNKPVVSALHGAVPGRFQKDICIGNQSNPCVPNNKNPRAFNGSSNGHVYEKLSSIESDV
row,SMILES,IC50 [nM]
1,Cc1ccc(N2CCN(C(=O)C(=O)Nc3ccc4[nH]c(=O)oc4c3)CC2)cc1Cl [Compound I-35],9
2,Cc1cc(N2CCN(C(=O)C(=O)Nc3ccc4[nH]c(=O)oc4c3)CC2)ccc1Cl [Compound I-37],9
3,Cc1ccc(N2CCN(C(=O)C(=O)Nc3ccc4[nH]c(=O)oc4c3)C[C@H]2C)cc1Cl [Compound I-39],9
4,COc1c(F)cc(N2CCN(C(=O)CNc3ccc4[nH]c(=O)oc4c3)C[C@H]2C)cc1F [Compound I-43],21
5,Cc1cc(N2CCN(C(=O)C(=O)Nc3ccc4[nH]c(=O)oc4c3)[C@H](C)C2)ccc1F [Compound I-45],57
6,Cc1cc(N2CCN(C(=O)C(=O)Nc3ccc4[nH]c(=O)oc4c3)CC2)ccc1F [Compound I-46],83
7,Cc1cc(N2CCN(C(=O)C(=O)Nc3ccc4[nH]c(=O)oc4c3)C[C@H]2C)ccc1F [Compound I-49],19
8,C[C@@H]1CN(c2ccc(Cl)cc2)CCN1CC(=O)Nc1ccc2[nH]c(=O)oc2c1 [Compound I-53],33
9,C[C@@H]1CN(c2ccc(F)c(Cl)c2)CCN1CC(=O)Nc1ccc2[nH]c(=O)oc2c1 [Compound I-54],52
10,COc1c(F)cc(N2CCN(CC(=O)Nc3ccc4[nH]c(=O)oc4c3)CC2)cc1F [Compound I-56],12
11,Cc1cc(N2CCN(CC(=O)Nc3ccc4[nH]c(=O)oc4c3)C[C@H]2C)ccc1Cl [Compound I-60],10
12,O=C(NCCN1CCN(c2ccc(Cl)cc2)CC1)c1ccc2[nH]c(=O)oc2c1 [Compound I-65],10

# Continued, values first:
row,IC50 [nM],SMILES
1,7,Cc1ccc(N2CCN(C(=O)C(=O)Nc3ccc4[nH]c(=O)oc4c3)[C@H](C)C2)cc1Cl [Compound I-38]
2,5,Cc1cc(N2CCN(C(=O)C(=O)Nc3ccc4[nH]c(=O)oc4c3)C[C@H]2C)ccc1Cl [Compound I-41]
3,5,C[C@@H]1CN(C(=O)C(=O)Nc2ccc3[nH]c(=O)oc3c2)CCN1c1ccc(C(F)(F)F)cc1 [Compound I-50]
4,5,CC[C@@H]1CN(C(=O)C(=O)Nc2ccc3[nH]c(=O)oc3c2)CCN1c1ccc(Cl)cc1 [Compound I-51]
5,8,CC[C@@H]1CN(c2ccc(Cl)cc2)CCN1C(=O)C(=O)Nc1ccc2[nH]c(=O)oc2c1 [Compound I-52]
6,4,C[C@@H]1CN(CC(=O)Nc2ccc3[nH]c(=O)oc3c2)CCN1c1ccc(Cl)c(F)c1 [Compound I-55]
7,4,COc1c(F)cc(N2CCN(CC(=O)Nc3ccc4[nH]c(=O)oc4c3)C[C@H]2C)cc1F [Compound I-57]
8,6,C[C@@H]1CN(CC(=O)Nc2ccc3[nH]c(=O)oc3c2)CCN1c1ccc(Cl)cc1 [Compound I-59]

# Tested on: not given
# Test: not given
# Details: not given
row,melting point [°C],SMILES
1,187 to 189,O=C(CCNc1ccc2[nH]c(=O)oc2c1)N1CCN(c2ccc(Cl)c(F)c2)CC1 [Compound I-2]
2,130 to 132,O=C(CNc1ccc2[nH]c(=O)oc2c1)N1CCN(c2ccc(F)c(Cl)c2)CC1 [Compound I-3]

# Molecular target: T2, NMDA Receptor (NR1/NR2B Receptor) (Rattus norvegicus, UniProt P35439+Q00960)
# T2 construct: this was used as a membrane specimen in an experiment; from tissue; host or cells: rat cerebral cortex membranes
# T2 sequence (Q00960 27-1482, other chains not shown): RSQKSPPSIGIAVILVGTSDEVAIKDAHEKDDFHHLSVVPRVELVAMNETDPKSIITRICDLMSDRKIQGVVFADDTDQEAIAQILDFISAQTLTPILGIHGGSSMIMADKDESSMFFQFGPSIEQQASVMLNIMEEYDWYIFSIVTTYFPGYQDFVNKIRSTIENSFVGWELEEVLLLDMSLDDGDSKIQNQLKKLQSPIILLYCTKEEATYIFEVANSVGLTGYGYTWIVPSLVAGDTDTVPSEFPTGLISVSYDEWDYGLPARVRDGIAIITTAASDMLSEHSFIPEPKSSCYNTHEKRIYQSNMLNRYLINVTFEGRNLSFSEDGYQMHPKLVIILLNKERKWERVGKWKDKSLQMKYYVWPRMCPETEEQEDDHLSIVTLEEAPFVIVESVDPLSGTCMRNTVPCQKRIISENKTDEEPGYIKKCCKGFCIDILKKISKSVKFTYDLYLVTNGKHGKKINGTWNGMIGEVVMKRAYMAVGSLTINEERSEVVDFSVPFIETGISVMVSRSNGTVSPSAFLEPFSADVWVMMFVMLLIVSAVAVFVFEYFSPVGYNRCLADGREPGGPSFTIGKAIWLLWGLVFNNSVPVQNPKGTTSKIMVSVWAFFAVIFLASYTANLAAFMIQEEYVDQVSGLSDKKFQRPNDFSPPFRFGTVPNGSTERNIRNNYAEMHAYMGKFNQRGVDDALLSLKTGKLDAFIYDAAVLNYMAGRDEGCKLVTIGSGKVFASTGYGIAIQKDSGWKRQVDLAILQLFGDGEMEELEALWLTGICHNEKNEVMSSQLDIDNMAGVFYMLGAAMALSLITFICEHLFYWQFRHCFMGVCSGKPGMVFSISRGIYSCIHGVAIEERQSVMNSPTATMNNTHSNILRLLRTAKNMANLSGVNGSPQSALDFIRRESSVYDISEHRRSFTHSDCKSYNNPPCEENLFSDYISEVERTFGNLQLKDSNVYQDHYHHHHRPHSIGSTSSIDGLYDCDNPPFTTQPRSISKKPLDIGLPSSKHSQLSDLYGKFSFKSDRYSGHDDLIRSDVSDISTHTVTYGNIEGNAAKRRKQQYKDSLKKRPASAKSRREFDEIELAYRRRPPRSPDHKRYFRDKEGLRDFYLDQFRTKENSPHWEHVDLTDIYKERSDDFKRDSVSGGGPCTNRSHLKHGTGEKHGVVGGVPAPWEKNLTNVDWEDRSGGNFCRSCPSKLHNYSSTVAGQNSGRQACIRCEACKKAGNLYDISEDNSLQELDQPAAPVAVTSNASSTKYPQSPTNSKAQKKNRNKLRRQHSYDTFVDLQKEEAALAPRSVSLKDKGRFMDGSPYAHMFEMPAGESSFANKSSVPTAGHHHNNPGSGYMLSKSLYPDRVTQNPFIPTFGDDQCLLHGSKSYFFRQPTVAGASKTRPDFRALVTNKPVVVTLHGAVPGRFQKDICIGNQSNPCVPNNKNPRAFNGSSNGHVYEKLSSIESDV
# Test: Experiment of binding to NMDA receptor (NR1/NR2B receptor), [3H]-Ifenprodil competition, rat cerebral cortex membrane
# Details: [3H]-Ifenprodil 5 nM, GBR-12909 3 μM, ice temperature 120 minutes
# Method: Using Ifenprodil which is a NR1/NR2B subtype receptor-specific antagonist as a ligand, an experiment of receptor competition with a test compound was performed.
# A male Slc:Wistar rat was used as an animal, a decapitated brain was isolated, and cerebral cortex was fractionated. The cerebral cortex was homogenized with a 20-fold amount of an ice-cooled 50 mM Tris/HCl buffer (pH 7.4), and centrifuged at 4° C. and 27,500×g for 10 minutes. The resulting precipitate was suspended in the same buffer, and the suspension was centrifuged again. This procedure was repeated three times, and the resulting precipitate was suspended in a buffer, and stored at −80° C. Immediately before an experiment, the frozen suspension was thawed at room temperature, and centrifuged at 4° C. and 27,500×g for 10 minutes, and the resulting precipitate was suspended in a buffer. The suspension was further diluted 10-fold with a buffer, and this was used as a membrane specimen in an experiment.
# In a binding experiment, to 470 μl of the membrane specimen were added 10 μl of different concentrations of a test compound, 10 μl of a labeled ligand [3H]-Ifenprodil and 10 μl of GBR-12909, and this was incubated at an ice temperature for 120 minutes. A concentration of [3H]-Ifenprodil of the labeled ligand was finally 5 nM, and a concentration of GBR-12909 was finally 3 μM. For measuring a total binding amount, DMSO as a solvent was used and, for measuring a non-specific binding amount, 100 μM of Ifenprodil was used. In addition, GBR-12909 was added in order to block binding of [3H]-Ifenprodil to a non-polyamine-sensitive site. After incubation, a bound body and a free body were separated using a Whatman GF/C filter (manufactured by Whatman), and the filter was washed with 2.5 ml of an ice-cooled buffer four times. The filter was immersed in a liquid scintillation (Clear-sol I, manufactured by Nacalai tesque) in a vial bottle, and radioactivity (dpm) was measured with a liquid scintillation counter. From a measured value, a binding inhibition rate (%) was obtained by the following equation, and a dose at which binding is inhibited 50% (IC50) was calculated. A formula of GBR-12909 (Vanoxerine) is shown below.
# Binding inhibition rate(%)=100−[(binding amount in presence of test compound−non-specific amount)/(total binding amount−non-specific binding amount)]×100
row,SMILES,IC50 [µM]
1,Cc1ccc(N2CCN(C(=O)C(=O)Nc3ccc4[nH]c(=O)oc4c3)CC2)cc1Cl [Compound I-35],0.02
2,C[C@@H]1CN(c2ccc(OC(F)(F)F)cc2)CCN1C(=O)CNc1ccc2[nH]c(=O)oc2c1 [Compound I-36],0.071
3,Cc1cc(N2CCN(C(=O)C(=O)Nc3ccc4[nH]c(=O)oc4c3)CC2)ccc1Cl [Compound I-37],0.029
4,Cc1ccc(N2CCN(C(=O)C(=O)Nc3ccc4[nH]c(=O)oc4c3)C[C@H]2C)cc1Cl [Compound I-39],0.08
5,COc1c(F)cc(N2CCN(C(=O)CNc3ccc4[nH]c(=O)oc4c3)C[C@H]2C)cc1F [Compound I-43],0.065
6,C[C@@H]1CN(c2ccc(Cl)cc2)CCN1CC(=O)Nc1ccc2[nH]c(=O)oc2c1 [Compound I-53],0.134
7,COc1c(F)cc(N2CCN(CC(=O)Nc3ccc4[nH]c(=O)oc4c3)CC2)cc1F [Compound I-56],0.044
8,Cc1cc(N2CCN(CC(=O)Nc3ccc4[nH]c(=O)oc4c3)C[C@H]2C)ccc1Cl [Compound I-60],0.08
9,O=C(NCCN1CCN(c2ccc(Cl)cc2)CC1)c1ccc2[nH]c(=O)oc2c1 [Compound I-65],0.026

# The next lines start with the values.
row,IC50 [µM],SMILES
1,0.041,Cc1ccc(N2CCN(C(=O)C(=O)Nc3ccc4[nH]c(=O)oc4c3)[C@H](C)C2)cc1Cl [Compound I-38]
2,0.067,Cc1cc(N2CCN(C(=O)C(=O)Nc3ccc4[nH]c(=O)oc4c3)C[C@H]2C)ccc1Cl [Compound I-41]
3,0.064,C[C@@H]1CN(C(=O)C(=O)Nc2ccc3[nH]c(=O)oc3c2)CCN1c1ccc(C(F)(F)F)cc1 [Compound I-50]
4,0.09,CC[C@@H]1CN(C(=O)C(=O)Nc2ccc3[nH]c(=O)oc3c2)CCN1c1ccc(Cl)cc1 [Compound I-51]
5,0.081,CC[C@@H]1CN(c2ccc(Cl)cc2)CCN1C(=O)C(=O)Nc1ccc2[nH]c(=O)oc2c1 [Compound I-52]
6,0.033,C[C@@H]1CN(CC(=O)Nc2ccc3[nH]c(=O)oc3c2)CCN1c1ccc(Cl)c(F)c1 [Compound I-55]
7,0.056,COc1c(F)cc(N2CCN(CC(=O)Nc3ccc4[nH]c(=O)oc4c3)C[C@H]2C)cc1F [Compound I-57]
8,0.042,C[C@@H]1CN(CC(=O)Nc2ccc3[nH]c(=O)oc3c2)CCN1c1ccc(Cl)cc1 [Compound I-59]
